Data taken from patent US20170051149A1, “AZOARYLS AS REVERSIBLY MODULATABLE TUBULIN INHIBITORS” (ECOLE NORMALE SUPERIEURE DE LYON, priority 2014, published 2017).

Tests used:
HeLa cells = assay: cytotoxicity by crystal violet staining; assay type: cell-based; conditions: 40 h
Method: Seven of the compounds according to the invention were selected for biological tests. Their cytotoxicity was assessed using crystal violet staining as adapted from standard procedure^[31]. Briefly, HeLa cells were seeded on 96-well plates, treated with the given concentrations of the selected compound, and exposed or not to the pulse protocol of illumination with light at 390 nm (pulses of 75 ms every 15 s). After 40 h cells were stained with crystal violet solution (0.5% crystal violet in 20% methanol) for 10 min. Unbound crystal violet was removed by rinsing with distilled water and cells were air-dried. Crystal violet was subsequently eluted from cells with 0.1 M sodium citrate in 50% ethanol. The absorbance of crystal violet is proportional to the cell number and was determined at 590 nm with a FLUOstar Omega microplate reader (BMG Labtech).
Each compound was tested at 6 doses: 100 nM, 500 nM, 1 μM, 2 μM, 5 μM and 10 μM. In order to ensure their solubility in the cell culture media, DMSO was used as a co-solvent, and to provide comparability between all samples the volume of DMSO was adjusted to obtain its final concentration as 1% in the cell culture media for all the compounds at all concentrations tested.
Results presented in Table 4 below are expressed as a fold growth relative to the control growth of the cells treated only with a co-solvent (1% DMSO), and are represented as a mean value from triplicates coming from a representative experiment.

HeLa = assay: cell cycle analysis by PI flow cytometry; assay type: cell-based; conditions: 30 h
Method: (§1) The effect of compound I.1 on cell cycle progression was assessed by flow cytometry. Briefly, following the application of compound I.1 and exposure to the indicated light regime, cells were harvested on ice and incubated in a hypotonic buffer [0.1% sodium citrate, 0.1% Triton X-100 and 50 μg/mL propidium iodide (PI)] for 30 min at 4° C. Following the PI staining cells were analysed by flow cytometry using FACSCalibur flow cytometer (Becton Dickinson, Heidelberg, Germany) and Cell Quest Pro Software (Becton Dickinson). Subsequently the cell cycle analysis was performed using the FlowJo software (Tree Star Inc., Ashland, Oreg., USA).

HEK-293 = assay: cell cycle analysis by PI flow cytometry; assay type: cell-based; conditions: 30 h
Method: as §1

MDA-MB-231 cells = assay: cell cycle analysis by PI flow cytometry; assay type: cell-based
Method: as §1

[1] = fluorescence spectrophotometry (excitation and emission spectra); assay type: physicochemical
Method: Absorption spectra in cuvette (“UV-Vis”) were acquired on a Varian CaryScan 50 (1 cm, 100 μL or 1 mL volume) with Peltier cell temperature control unit maintained at 37° C., in PBS at pH˜7.4 containing a low percentage of cosolvent if needed (typically 2% MeCN or 5% DMSO). A ThorLabs Polychrome V monochromator with a fibre optic cable output directed into the cuvette was used to perform photoisomerisation studies by UV-Vis spectrophotometry although single LEDs of approximately 10-20 mW output, 15-20° cone angle, and 10-15 nm bandwidth FWHM, obtained commercially from Roithner Lasertechnik GmbH, were equally successful in providing repeatable monochromatic photoisomerisation. Separated spectra of trans and […] forms were acquired from the inline Diode Array Detector on the AGILENT 1260 SL coupled LC-MS system after HPLC separation. Fluorescence spectrophotometry (excitation and emission spectra) were acquired on a Varian CaryEclipse fluorescence spectrophotometer.
Fluorescence imaging is commonly used to sensitively, conveniently and non-invasively determine the local concentration of fluorescent species in biological and medical settings. Considering I.25 as an example of a compound of the invention bearing a fluorescent reporter, it was considered desirable that its rhodamine moiety would allow fluorescence detection of I.25.

[2] = 200 nM, 390 nm (1 s every 15 min)
[3] = 600 nM, 390 nm (1 s every 15 min)
[4] = 1.5 μM, 390 nm (1 s every 15 min)
[5] = 5 μM, 390 nm (1 s every 15 min)
[6] = 10 nM, 390 nm (150 ms every 30 s), 48 h
[7] = 20 nM, 390 nm (150 ms every 30 s), 48 h
[8] = 50 nM, 390 nm (150 ms every 30 s), 48 h
[9] = 100 nM, 390 nm (150 ms every 30 s), 48 h
[10] = 400 nM, 390 nm (150 ms every 30 s), 48 h
[11] = 600 nM, 390 nm (150 ms every 30 s), 48 h
[12] = 800 nM, 390 nm (150 ms every 30 s), 48 h
[13] = 1 μM, 390 nm (150 ms every 30 s), 48 h
[14] = 2 μM, 390 nm (150 ms every 30 s), 48 h
[15] = 5 μM, 390 nm (150 ms every 30 s), 48 h

COc1ccc(N=Nc2cc(OC)c(OC)c(OC)c2)cc1O [I.1, 2-methoxy-5-((3,4,5-trimethoxyphenyl)diazenyl)phenol]
mean fold growth (HeLa cells; 100 nM, 390 nm (75 ms every 15 s)): 0.95 fold | mean fold growth (HeLa cells; 100 nM, Dark): 0.95 fold | mean fold growth (HeLa cells; 500 nM, 390 nm (75 ms every 15 s)): 0.85 fold | mean fold growth (HeLa cells; 500 nM, Dark): 0.89 fold | mean fold growth (HeLa cells; 1 μM, 390 nm (75 ms every 15 s)): 0.43 fold | mean fold growth (HeLa cells; 1 μM, Dark): 0.87 fold | mean fold growth (HeLa cells; 2 μM, 390 nm (75 ms every 15 s)): 0.35 fold | mean fold growth (HeLa cells; 2 μM, Dark): 0.89 fold | mean fold growth (HeLa cells; 5 μM, 390 nm (75 ms every 15 s)): 0.27 fold | mean fold growth (HeLa cells; 5 μM, Dark): 0.84 fold | mean fold growth (HeLa cells; 10 μM, 390 nm (75 ms every 15 s)): 0.35 fold | mean fold growth (HeLa cells; 10 μM, Dark): 0.75 fold | mean % G2/M phase (HeLa; [2]): 26.2% | mean % G2/M phase (HeLa; 200 nM, dark): 23.5% | mean % G2/M phase (HeLa; [3]): 33.7% | mean % G2/M phase (HeLa; 600 nM, dark): 24.8% | mean % G2/M phase (HeLa; [4]): 59.9% | mean % G2/M phase (HeLa; 1.5 μM, dark): 27.1% | mean % G2/M phase (HeLa; [5]): 68.7% | mean % G2/M phase (HeLa; 5 μM, dark): 28.4% | mean % G2/M phase (HEK-293; [2]): 19.0% | mean % G2/M phase (HEK-293; 200 nM, dark): 20.2% | mean % G2/M phase (HEK-293; [3]): 19.4% | mean % G2/M phase (HEK-293; 600 nM, dark): 21.2% | mean % G2/M phase (HEK-293; [4]): 65.3% | mean % G2/M phase (HEK-293; 1.5 μM, dark): 21.1% | mean % G2/M phase (HEK-293; [5]): 71.5% | mean % G2/M phase (HEK-293; 5 μM, dark): 24.6% | % G1 (MDA-MB-231 cells; [6]): 74.6% | % G2 (MDA-MB-231 cells; [6]): 1.9% | % S (MDA-MB-231 cells; [6]): 17.1% | mean % G2/M phase (MDA-MB-231 cells; [6]): 1.9% | mean % G2/M phase (MDA-MB-231 cells; 10 nM, 390 nm + 515 nm (rescue), 48 h): 0.8% | mean % G2/M phase (MDA-MB-231 cells; 10 nM, 515 nm (500 ms every 30 s), 48 h): 1.1% | % G1 (MDA-MB-231 cells; [7]): 79.5% | % G2 (MDA-MB-231 cells; [7]): 2.5% | % S (MDA-MB-231 cells; [7]): 18.0% | % G1 (MDA-MB-231 cells; [8]): 77.1% | % G2 (MDA-MB-231 cells; [8]): 1.8% | % S (MDA-MB-231 cells; [8]): 18.0% | % G1 (MDA-MB-231 cells; [9]): 76.6% | % G2 (MDA-MB-231 cells; [9]): 2.0% | % S (MDA-MB-231 cells; [9]): 18.5% | mean % G2/M phase (MDA-MB-231 cells; [9]): 2.0% | mean % G2/M phase (MDA-MB-231 cells; 100 nM, 390 nm + 515 nm (rescue), 48 h): 0.9% | mean % G2/M phase (MDA-MB-231 cells; 100 nM, 515 nm (500 ms every 30 s), 48 h): 1.2% | mean % G2/M phase (MDA-MB-231 cells; 200 nM, 390 nm (1 s every 15 min), 30 h): 8.2% | mean % G2/M phase (MDA-MB-231 cells; 200 nM, dark, 30 h): 14.3% | % G1 (MDA-MB-231 cells; [10]): 53.1% | % G2 (MDA-MB-231 cells; [10]): 15.1% | % S (MDA-MB-231 cells; [10]): 27.6% | mean % G2/M phase (MDA-MB-231 cells; [10]): 15.1% | mean % G2/M phase (MDA-MB-231 cells; 400 nM, 390 nm + 515 nm (rescue), 48 h): 6.4% | mean % G2/M phase (MDA-MB-231 cells; 400 nM, 515 nm (500 ms every 30 s), 48 h): 8.2% | mean % G2/M phase (MDA-MB-231 cells; 600 nM, 390 nm (1 s every 15 min), 30 h): 16.3% | % G1 (MDA-MB-231 cells; [11]): 18.0% | % G2 (MDA-MB-231 cells; [11]): 42.6% | % S (MDA-MB-231 cells; [11]): 31.0% | mean % G2/M phase (MDA-MB-231 cells; [11]): 42.6% | mean % G2/M phase (MDA-MB-231 cells; 600 nM, 390 nm + 515 nm (rescue), 48 h): 17.3% | mean % G2/M phase (MDA-MB-231 cells; 600 nM, 515 nm (500 ms every 30 s), 48 h): 21.7% | mean % G2/M phase (MDA-MB-231 cells; 600 nM, dark, 30 h): 12.8% | % G1 (MDA-MB-231 cells; [12]): 9.5% | % G2 (MDA-MB-231 cells; [12]): 54.2% | % S (MDA-MB-231 cells; [12]): 27.5% | mean % G2/M phase (MDA-MB-231 cells; [12]): 54.2% | mean % G2/M phase (MDA-MB-231 cells; 800 nM, 390 nm + 515 nm (rescue), 48 h): 24.7% | mean % G2/M phase (MDA-MB-231 cells; 800 nM, 515 nm (500 ms every 30 s), 48 h): 32.5% | % G1 (MDA-MB-231 cells; [13]): 5.5% | % G2 (MDA-MB-231 cells; [13]): 52.9% | % S (MDA-MB-231 cells; [13]): 27.6% | mean % G2/M phase (MDA-MB-231 cells; [13]): 52.9% | mean % G2/M phase (MDA-MB-231 cells; 1 μM, 390 nm + 515 nm (rescue), 48 h): 22.3% | mean % G2/M phase (MDA-MB-231 cells; 1 μM, 515 nm (500 ms every 30 s), 48 h): 28.4% | mean % G2/M phase (MDA-MB-231 cells; 1.5 μM, 390 nm (1 s every 15 min), 30 h): 40.6% | mean % G2/M phase (MDA-MB-231 cells; 1.5 μM, dark, 30 h): 13.1% | % G1 (MDA-MB-231 cells; [14]): 4.8% | % G2 (MDA-MB-231 cells; [14]): 60.1% | % S (MDA-MB-231 cells; [14]): 26.4% | mean % G2/M phase (MDA-MB-231 cells; 5 μM, 390 nm (1 s every 15 min), 30 h): 49.4% | % G1 (MDA-MB-231 cells; [15]): 5.0% | % G2 (MDA-MB-231 cells; [15]): 70.2% | % S (MDA-MB-231 cells; [15]): 23.9% | mean % G2/M phase (MDA-MB-231 cells; 5 μM, dark, 30 h): 13.8%

CCN(CC)c1ccc2c(-c3ccccc3C(=O)N3CCN(CCCOc4c(N=Nc5cc(OC)c(OC)c(OC)c5)ccc(OC)c4C)CC3)c3ccc(=[N+](CC)CC)cc-3oc2c1.CCN(CC)c1ccc2c(-c3ccccc3C(=O)N3CCN(CCCOc4c(N=Nc5cc(OC)c(OC)c(OC)c5)ccc(OC)c4C)CC3)c3ccc(=[N+](CC)CC)cc-3oc2c1.O=C[O-].O=C[O-] [I.25, N-(6-(diethylamino)-9-(2-(4-(3-(3-methoxy-2-methyl-6-((3,4,5-trimethoxyphenyl)diazenyl)phenoxy)propyl)piperazine-1-carbonyl)phenyl)-3H-xanthen-3-ylidene)-N-ethylethanaminium bis(formate) salt]
excitation wavelength giving maximum emission intensity ([1]; emission at 590 nm): 570 nm | fluorescence emission maximum ([1]; excited at 380 nm or 554 nm, 10 μM, 60:32:8 EtOH:PBS:MeCN, 25° C.): 590 nm
